Test results taken from patent US9889146B2, “Benzoxaborole compounds and uses thereof” (priority 2012, dated 2018).
≈ marks a conversion by molar mass, not a printed value. Like-named read-outs stand apart in the source and are kept apart here.

What was measured:
[1] = tested on: Enterobacter aerogenes (WT); experiment: microbe, parasite or virus in culture; assay type: cell-based; details: Klebsiella aerogenes; Enterobacter aerogenes (WT), 199 isolates; read-out: MIC90
[2] = tested on: Proteus vulgaris (WT); experiment: microbe, parasite or virus in culture; assay type: cell-based; details: Proteus vulgaris (WT), 41 isolates; read-out: MIC90
[3] = tested on: E. coli ATCC 25922, K. pneumoniae ATCC 13883 and P. aeruginosa ATCC 27853; experiment: MIC, three strains and their mutants summarised; assay type: cell-based; details: MIC in E. coli, P. aeruginosa and K. pneumoniae mutants versus wild-type
Description: (§1) Spontaneous Resistance Frequency was determined in vitro for GSK2251052 and the resistance mutants in E. coli ATCC 25922, K. pneumoniae ATCC 13883, and P. aeruginosa ATCC 27853 strains were characterized. GSK2251052 was prepared as described in U.S. Pat. No. 7,816,344 (the entire contents of which are hereby incorporated by reference herein). LB broth, Mueller Hinton II broth (adjusted), and Difco noble agar were obtained from Becton Dickinson (Cockeysville, Md., USA). M9 minimal broth containing 1×M9 salt, 0.5 μg/ML thiamine, 1 mM MgSO4, 0.1 mM CaCl2, 2% glucose, was obtained from Teknova (Hollister, Calif., USA). Antibacterial agents ciprofloxacin, ceftazidime, chloramphenicol, gentamycin, kanamycin, polymixin B, tobramycin and trimethoprim, and amino acids were obtained from Sigma Chemicals (St. Louis, Mo., USA). Strains were obtained from ATCC (Manassas, Va., USA).
Susceptibility tests were performed following the recommendations for aerobic bacteria (M7-A7) from the Clinical and Laboratories Standards Institute (CLSI).
Laboratory generated mutants resistant to GSK2251052 contain mutations in the editing domain of LeuRS. Six to ten GSK2251052 resistant colonies of E. coli ATCC 25922, K. pneumoniae ATCC 13883 and P. aeruginosa ATCC 27853 were selected for further analysis and their MICs to GSK2251052 were determined (Table 4-7).
GSK2251052 resistant mutants were not cross-resistant to commercial antibiotics.

[4] = tested on: Enterobacter cloacae (AmpC); experiment: microbe, parasite or virus in culture; assay type: cell-based; details: Enterobacter cloacae
[5] = tested on: Proteus mirabilis (WT); experiment: microbe, parasite or virus in culture; assay type: cell-based; details: Proteus mirabilis (WT), 235 isolates; read-out: MIC90
[6] = tested on: E. coli (WT); experiment: microbe, parasite or virus in culture; assay type: cell-based; details: Escherichia coli; E. coli (WT), 214 isolates; read-out: MIC90
[7] = tested on: Klebsiella spp. (ESBL); experiment: microbe, parasite or virus in culture; assay type: cell-based; details: Klebsiella
[8] = tested on: Enterobacteriaceae; experiment: organism not typed; assay type: cell-based; details: Enterobacteriaceae, 2029 isolates; read-out: MIC90
[9] = tested on: K. pneumoniae ATCC 13883 wild type and mutants; experiment: MIC, wild type and GSK2251052 resistant mutants; assay type: cell-based; details: Klebsiella pneumoniae
In short: (§2)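 MICs were determined following CLSI M7-A7 recommendations for aerobic bacteria. Strains were E. coli ATCC 25922, K. pneumoniae ATCC 13883, P. aeruginosa ATCC 27853 and six to ten laboratory-selected GSK2251052-resistant colonies of each, carrying mutations in the LeuRS editing domain.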

[10] = tested on: E. coli ATCC 25922 wild type and mutants; experiment: MIC, wild type and GSK2251052 resistant mutants; assay type: cell-based; details: Escherichia coli
In short: as §2

[11] = tested on: P. aeruginosa ATCC 27853 wild type and mutants; experiment: MIC, wild type and GSK2251052 resistant mutants; assay type: cell-based; details: Pseudomonas aeruginosa
In short: as §2

[12] = tested on: E. coli (ESBL); experiment: microbe, parasite or virus in culture; assay type: cell-based; details: Escherichia coli
[13] = tested on: P. aeruginosa; experiment: In vitro activity against P. aeruginosa clinical isolates; assay type: cell-based; details: P. aeruginosa, 2,008 clinical isolates; GSK2251052 based on potential susceptible breakpoint of ≦4 μg/mL
Description: GSK2251052 was tested for activity against P. aeruginosa, and its activity was compared to other antibiotics of known activity. The results are shown below in Tables 2a and 2b. Of 2,008 clinical isolates tested (from 2009-2010 subjects, of which 40% were from North America) greater than 90% were susceptible to GSK2251052 based on a potential susceptible breakpoint of ≦4 μg/mL.

[14] = tested on: K. pneumoniae ATCC 13883; experiment: Spontaneous frequency of resistance; assay type: cell-based; details: 24 h
Description: as §1
(§3) Selection of resistance to GSK2251052 was attempted by spreading various amounts of bacteria onto MHBII noble agar plates containing 4×MIC (minimum inhibitory concentration) or 10×MIC of GSK2251052. Colonies were counted after 24 hours and 48 hours incubation at 37° C. The resistance of these colonies was confirmed by their ability to grow on plates containing GSK2251052 at either 4× or 10×MIC. Frequency of resistance was determined by dividing the number of resistant mutants by the total number of cells plated as determined by plating dilutions of the overnight culture on LB plates.

[15] = tested on: P. aeruginosa ATCC 27853; experiment: Spontaneous frequency of resistance; assay type: cell-based; details: 24 h
Description: as §1, §3

[16] = tested on: E. coli ATCC 25922; experiment: Spontaneous frequency of resistance; assay type: cell-based; details: 24 h
Description: as §1, §3

[17] = tested on: S. marcescens (AmpC); experiment: microbe, parasite or virus in culture; assay type: cell-based; details: Serratia marcescens
[18] = tested on: Klebsiella spp. (KPC); experiment: microbe, parasite or virus in culture; assay type: cell-based; details: Klebsiella
[19] = tested on: Citrobacter freundii (AmpC); experiment: microbe, parasite or virus in culture; assay type: cell-based; details: Citrobacter freundii
[20] = tested on: Morganella morganii (AmpC); experiment: microbe, parasite or virus in culture; assay type: cell-based; details: Morganella morganii
[21] = tested on: Enterobacter cloacae (WT); experiment: microbe, parasite or virus in culture; assay type: cell-based; details: 202 isolates, read-out: MIC90
[22] = tested on: Providencia spp.(all); experiment: microbe, parasite or virus in culture; assay type: cell-based; details: Providencia spp.(all), 68 isolates; read-out: MIC90
[23] = tested on: Enterobacter aerogenes (AmpC); experiment: microbe, parasite or virus in culture; assay type: cell-based; details: Klebsiella aerogenes
[24] = tested on: Klebsiella spp. (WT); experiment: microbe, parasite or virus in culture; assay type: cell-based; details: Klebsiella spp. (WT), 159 isolates; read-out: MIC90
[25] = tested on: K. pneumoniae; details: up regulation of an AcrAB efflux pump; Ruzin et al. AAC 2005; cited from earlier work

CC(C)(O/N=C(\C(=O)N[C@@H]1C(=O)N2C(C(=O)[O-])=C(C[n+]3ccccc3)CS[C@H]12)c1csc(N)n1)C(=O)O [Ceftazidime]
MIC90 [1]: ≤ 1 µg/mL | MIC90 [2]: ≤ 1 µg/mL | cross-resistance of GSK2251052 resistant mutants [3]: did not have any significant difference in MIC values than wild-type | MIC90 [4]: > 16 µg/mL | MIC90 [5]: ≤ 1 µg/mL | MIC90 [6]: ≤ 1 µg/mL | MIC90 [7]: > 16 µg/mL | MIC90 [8]: > 16 µg/mL | MIC ([9]; ATCC13883, K wt., read-out: MICs): 0.5 µg/mL (≈ 0.915 µM) | MIC ([9]; ATCC13883, read-out: MICs, mutant K 104): 0.5 µg/mL (≈ 0.915 µM) | MIC ([9]; ATCC13883, read-out: MICs, mutant K 105): 0.5 µg/mL (≈ 0.915 µM) | MIC ([9]; ATCC13883, read-out: MICs, mutant K 107): 0.5 µg/mL (≈ 0.915 µM) | MIC ([9]; ATCC13883, read-out: MICs, mutant K 108): 1 µg/mL (≈ 1.83 µM) | MIC ([9]; ATCC13883, read-out: MICs, mutant K 110): 0.5 µg/mL (≈ 0.915 µM) | MIC ([10]; ATCC25922, E wt, read-out: MICs): 0.5 µg/mL (≈ 0.915 µM) | MIC ([10]; ATCC25922, read-out: MICs, mutant E 101): 0.5 µg/mL (≈ 0.915 µM) | MIC ([10]; ATCC25922, read-out: MICs, mutant E 102): 0.5 µg/mL (≈ 0.915 µM) | MIC ([10]; ATCC25922, read-out: MICs, mutant E 107): 0.5 µg/mL (≈ 0.915 µM) | MIC ([11]; ATCC27853, P wt., read-out: MICs): 2 µg/mL (≈ 3.66 µM) | MIC ([11]; ATCC27853, read-out: MICs, mutant P 101): 4 µg/mL (≈ 7.32 µM) | MIC ([11]; ATCC27853, read-out: MICs, mutant P106): 2 µg/mL (≈ 3.66 µM) | MIC ([11]; ATCC27853, read-out: MICs, mutant P108): 2 µg/mL (≈ 3.66 µM) | MIC90 [12]: > 16 µg/mL | % susceptible [13]: 66.4% | Frequency of Resistance ([14]; 4 X MIC): 1 × 10^−8 | Frequency of Resistance ([14]; 10 X MIC): <4 × 10^−9 | Frequency of Resistance ([15]; 4 X MIC): 2 × 10^−7 | Frequency of Resistance ([15]; 10 X MIC): 2 × 10^−8 | Frequency of Resistance ([16]; 4 X MIC): <3 × 10^−9 | Frequency of Resistance ([16]; 10 X MIC): <3 × 10^−9 | MIC90 [17]: > 16 µg/mL | MIC90 [18]: > 16 µg/mL | MIC90 [19]: > 16 µg/mL | MIC90 [20]: > 16 µg/mL | MIC90 [21]: ≤ 1 µg/mL | MIC90 [22]: 8 µg/mL (≈ 14.6 µM) | MIC90 [23]: > 16 µg/mL | MIC90 [24]: ≤ 1 µg/mL

CN(C)c1cc(NC(=O)CNC(C)(C)C)c(O)c2c1C[C@H]1C[C@H]3[C@H](N(C)C)C(O)=C(C(N)=O)C(=O)[C@@]3(O)C(O)=C1C2=O [Tigecycline]
MIC90 [1]: 0.5 µg/mL (≈ 0.854 µM) | MIC90 [2]: 2 µg/mL (≈ 3.41 µM) | phenotype of resistant mutants [25]: multidrug-resistant | MIC90 [4]: 4 µg/mL (≈ 6.83 µM) | MIC90 [5]: 4 µg/mL (≈ 6.83 µM) | MIC90 [6]: 0.25 µg/mL (≈ 0.427 µM) | MIC90 [7]: 2 µg/mL (≈ 3.41 µM) | MIC90 [8]: 2 µg/mL (≈ 3.41 µM) | MIC90 [12]: 0.5 µg/mL (≈ 0.854 µM) | MIC90 [17]: 2 µg/mL (≈ 3.41 µM) | MIC90 [18]: 2 µg/mL (≈ 3.41 µM) | MIC90 [19]: 2 µg/mL (≈ 3.41 µM) | MIC90 [20]: 4 µg/mL (≈ 6.83 µM) | MIC90 [21]: 0.5 µg/mL (≈ 0.854 µM) | MIC90 [22]: 4 µg/mL (≈ 6.83 µM) | MIC90 [23]: 2 µg/mL (≈ 3.41 µM) | MIC90 [24]: 1 µg/mL (≈ 1.71 µM)
